# Reference: PubChem BioAssay (NCI)
#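 Grown in 96-well plates, cells were treated for 48 hours with each compound at five concentrations. Insufficient inhibition: endpoint recorded as highest concentration tested. GI50 is the concentration that inhibits growth by half. The concentration for full growth arrest is given as TGI.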
# Key:
# Test in all cases: inhibition of tumour cell growth, NCI panel, 48 h
# HT29 colon = test system: HT29 colon
# NCI/ADR-RES ovarian = test system: NCI/ADR-RES ovarian
# CCRF-CEM leukemia = test system: CCRF-CEM leukemia
# RPMI-8226 leukemia = test system: RPMI-8226 leukemia
# SN12C renal = test system: SN12C renal
# SNB-75 CNS = test system: SNB-75 CNS
# HCC-2998 colon = test system: HCC-2998 colon
# UACC-62 melanoma = test system: UACC-62 melanoma
# NCI-H23 lung = test system: NCI-H23 lung
# KM12 colon = test system: KM12 colon
# HCT-15 colon = test system: HCT-15 colon
# SK-MEL-28 melanoma = test system: SK-MEL-28 melanoma
# HOP-62 NSCLC = test system: HOP-62 NSCLC
# SR leukemia = test system: SR leukemia
SMILES,TGI (HT29 colon) [µM],TGI (NCI/ADR-RES ovarian) [µM],TGI (CCRF-CEM leukemia) [µM],TGI (RPMI-8226 leukemia) [µM],TGI (SN12C renal) [µM],TGI (SNB-75 CNS) [µM],TGI (HCC-2998 colon) [µM],TGI (UACC-62 melanoma) [µM],TGI (NCI-H23 lung) [µM],TGI (KM12 colon) [µM],TGI (HCT-15 colon) [µM],TGI (SK-MEL-28 melanoma) [µM],TGI (HOP-62 NSCLC) [µM],GI50 (CCRF-CEM leukemia) [µM],TGI (SR leukemia) [µM],GI50 (NCI/ADR-RES ovarian) [µM],GI50 (RPMI-8226 leukemia) [µM],GI50 (SN12C renal) [µM],GI50 (SNB-75 CNS) [µM],GI50 (SR leukemia) [µM]
Nc1ccc(N=Nc2ccc(/C=C/c3ccc(N=Nc4ccc(N)c5ccc(S(=O)(=O)O)cc45)cc3S(=O)(=O)O)c(S(=O)(=O)O)c2)c2cc(S(=O)(=O)O)ccc12,> 100,> 100,> 100,> 100,> 100,> 100,> 100,> 100,> 100,> 100,> 100,> 100,> 100,,,,,,,
O=c1c2cc(I)ccc2nc(-c2cccs2)n1Nc1ccccc1,> 100,> 100,> 100,> 100,> 100,,50.8,> 100,91,> 100,> 100,> 100,68.6,50.7,> 100,,,,,
CC1CN=C(NCc2ccccc2)S1 (configuration not stated),> 100,,> 100,> 100,> 100,> 100,> 100,> 100,> 100,> 100,> 100,> 100,> 100,,> 100,,,,,
COc1cc(/C=C2\CCCC3=C2NC(N)=NC3c2cc(OC)c(OC)c(OC)c2)cc(OC)c1OC (configuration not stated),,> 100,7.31,1.79,> 100,> 100,,,,,,,,0.419,3.74,0.29,0.291,1.62,8.02,0.51
